Results on 15 molecules are retold here after patent publication US12054487B2, “Muscarinic acetylcholine M1 receptor antagonists” (Contineum Therapeutics, Inc., priority 2018, dated 2024).

Common to all, as to format: cell-based
One assay concerns the target M3 (Homo sapiens, UniProt P20309). The assay is described as follows: In vitro functional assay of muscarinic acetylcholine receptor activity, M3. The following applies: antagonist activity; M3 method not separately described.
A further assay deals with T1, M2 (Homo sapiens, UniProt P08172).
T1 sequence (P08172 1-466): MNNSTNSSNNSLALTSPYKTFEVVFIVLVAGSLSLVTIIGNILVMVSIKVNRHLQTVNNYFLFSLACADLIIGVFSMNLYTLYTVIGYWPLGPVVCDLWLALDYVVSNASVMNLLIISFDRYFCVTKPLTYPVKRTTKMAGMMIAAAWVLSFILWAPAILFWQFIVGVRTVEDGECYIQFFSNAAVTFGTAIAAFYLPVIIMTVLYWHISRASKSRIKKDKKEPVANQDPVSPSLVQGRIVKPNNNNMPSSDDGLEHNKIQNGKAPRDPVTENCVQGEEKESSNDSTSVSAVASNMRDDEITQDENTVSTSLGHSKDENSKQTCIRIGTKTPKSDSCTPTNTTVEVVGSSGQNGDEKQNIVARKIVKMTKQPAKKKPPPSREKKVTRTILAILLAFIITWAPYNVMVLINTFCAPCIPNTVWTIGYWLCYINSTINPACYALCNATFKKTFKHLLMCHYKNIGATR
The assay is described as follows: In vitro functional assay of muscarinic acetylcholine receptor activity, M2. Particulars: antagonist activity; M2 method not separately described.

The target of another assay is T2, human M1 receptor (Homo sapiens, UniProt P11229).
T2 construct: host or cells: CHO-K1
T2 sequence (P11229 1-460): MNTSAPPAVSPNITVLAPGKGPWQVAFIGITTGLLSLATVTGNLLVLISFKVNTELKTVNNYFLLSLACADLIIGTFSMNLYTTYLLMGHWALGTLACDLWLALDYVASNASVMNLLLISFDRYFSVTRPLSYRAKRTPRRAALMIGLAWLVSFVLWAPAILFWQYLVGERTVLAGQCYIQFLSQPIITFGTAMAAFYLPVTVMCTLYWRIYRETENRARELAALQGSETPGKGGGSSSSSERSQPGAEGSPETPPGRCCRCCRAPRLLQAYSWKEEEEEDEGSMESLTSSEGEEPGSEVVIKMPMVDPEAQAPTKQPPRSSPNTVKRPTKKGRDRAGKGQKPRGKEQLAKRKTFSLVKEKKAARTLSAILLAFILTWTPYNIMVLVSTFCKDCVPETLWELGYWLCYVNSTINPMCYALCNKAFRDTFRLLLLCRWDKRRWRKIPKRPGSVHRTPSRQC
The assay is described as follows: In vitro functional assay of muscarinic acetylcholine receptor activity (aequorin calcium flux, antagonist mode vs EC80 acetylcholine), M1. The following applies: CHO-K1 cells stably expressing human M1 receptor with Aequorin; decrease in EC80 acetylcholine response. The method, boiled down:
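CHO-K1 cells stably co-expressing human M1 and aequorin were loaded with 5 uM coelenterazine h for 4 h at room temperature in the dark. IC50 came from the drop in luminescence.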
(In general: Calcium flux is commonly read through the fluorescence of an indicator in the cells.)

Chain of M3 (P20309 whole entry): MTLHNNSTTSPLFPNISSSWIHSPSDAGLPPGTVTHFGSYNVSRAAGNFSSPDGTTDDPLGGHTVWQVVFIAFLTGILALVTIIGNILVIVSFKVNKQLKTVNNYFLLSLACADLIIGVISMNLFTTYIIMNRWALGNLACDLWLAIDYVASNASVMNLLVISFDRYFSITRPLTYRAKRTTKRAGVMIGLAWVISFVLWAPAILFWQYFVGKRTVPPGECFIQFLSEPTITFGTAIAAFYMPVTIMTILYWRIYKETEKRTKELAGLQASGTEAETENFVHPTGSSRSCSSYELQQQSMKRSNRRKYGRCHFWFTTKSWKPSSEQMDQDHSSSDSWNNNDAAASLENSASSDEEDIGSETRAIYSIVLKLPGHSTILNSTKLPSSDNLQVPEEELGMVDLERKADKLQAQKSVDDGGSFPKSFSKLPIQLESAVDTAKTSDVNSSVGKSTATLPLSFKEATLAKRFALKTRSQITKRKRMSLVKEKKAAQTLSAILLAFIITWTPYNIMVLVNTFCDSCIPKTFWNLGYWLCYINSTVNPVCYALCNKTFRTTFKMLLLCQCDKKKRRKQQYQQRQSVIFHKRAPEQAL

As to `O=C1[C@@H](CCCc2cccc3ncnn23)C[C@H]2CN(c3ccnc(C(F)(F)F)c3)CCN12` [Example 33, (7S,8aS)-7-(3-([1,2,4]triazolo[1,5-a]pyridin-5-yl)propyl)-2-(2-(trifluoromethyl)pyridin-4-yl)hexahydropyrrolo[1,2-a]pyrazin-6(2H)-one], the concentration for half-maximal inhibition (IC50) (usually the concentration at which inhibition is half-maximal) at M3 fell in the range of 1 to 10 µM; against M2, 1 to 10 µM; at human M1 receptor, 0.1 to 1 µM.

On to `O=C1[C@@H](CCCc2cccc3ncnn23)C[C@H]2CN(c3ncc(F)cn3)CCN12` [Example 35, (7S,8aS)-7-(3-([1,2,4]triazolo[1,5-a]pyridin-5-yl)propyl)-2-(5-fluoropyrimidin-2-yl)hexahydropyrrolo[1,2-a]pyrazin-6(2H)-one], for which the IC50 was greater than 10 µM against M3, greater than 10 µM against M2 and less than 0.1 µM at human M1 receptor.

`Cc1cc(N2CCN3C(=O)C(CCCc4cccc5ncnn45)C[C@H]3C2)ncc1F` (mixture of isomers) [Example 42, (7S,8aS)-7-(3-([1,2,4]triazolo[1,5-a]pyridin-5-yl)propyl)-2-(5-fluoro-4-methylpyridin-2-yl)hexahydropyrrolo[1,2-a]pyrazin-6(2H)-one]: the concentration for half-maximal inhibition (IC50) at M3 was greater than 10 µM; against M2, 1 to 10 µM; on human M1 receptor it was greater than 10 µM.

In the case of `O=C1C(CCCc2cccc3ncnn23)C[C@H]2CN(c3cncc(Cl)c3)CCN12` (mixture of isomers) [Example 44, (8aS)-7-(3-([1,2,4]triazolo[1,5-a]pyridin-5-yl)propyl)-2-(5-chloropyridin-3-yl)hexahydropyrrolo[1,2-a]pyrazin-6(2H)-one], the half-inhibitory concentration (IC50) against M3 is greater than 10 µM; on M2 it was 1 to 10 µM; at human M1 receptor it was 1 to 10 µM.

Turning to `N#Cc1ccc(N2CCN3C(=O)[C@@H](CCCc4cccn5ccnc45)C[C@H]3C2)nc1` [Example 15], the concentration for half-maximal inhibition (IC50) against M3 was 1 to 10 µM; against M2, greater than 10 µM; on human M1 receptor it was 0.1 to 1 µM.

On to `O=C1[C@@H](CCCc2cccc3ncsc23)C[C@H]2CN(c3ccnc(Cl)c3)CCN12` [Example 12], for which the figures for the half-maximal inhibitory concentration (IC50) on M3, against M2 and on human M1 receptor were 1 to 10 µM, 1 to 10 µM and 0.1 to 1 µM, respectively.

Take `N#Cc1ccc(N2CCN3C(=O)[C@@H](CCCc4cccc5c4CCO5)C[C@H]3C2)nc1` [Example 19, 6-((7S,8aS)-7-(3-(2,3-dihydrobenzofuran-4-yl)propyl)-6-oxohexahydropyrrolo[1,2-a]pyrazin-2(1H)-yl)nicotinonitrile]: the IC50 at M3 was 1 to 10 µM; against M2, 0.1 to 1 µM; on human M1 receptor, less than 0.1 µM.

As to `Nc1cc(N2CCN3C(=O)[C@@H](CCCc4cccc5ncsc45)C[C@H]3C2)ccn1` [Example 30, (7S,8aS)-2-(2-aminopyridin-4-yl)-7-(3-(benzo[d]thiazol-7-yl)propyl)hexahydropyrrolo[1,2-a]pyrazin-6(2H)-one], the concentration for half-maximal inhibition (IC50) is 1 to 10 µM against M3, 1 to 10 µM against M2 and less than 0.1 µM on human M1 receptor.

In the case of `N#Cc1ccc(N2CCN3C(=O)[C@@H](CCCc4cccn5ncnc45)C[C@H]3C2)nc1` [Example 68, 6-((7S,8aS)-7-(3-([1,2,4]triazolo[1,5-a]pyridin-8-yl)propyl)-6-oxohexahydropyrrolo[1,2-a]pyrazin-2(1H)-yl)nicotinonitrile], the values for the IC50 against M3, against M2 and on human M1 receptor were less than 0.1 µM, 0.1 to 1 µM and less than 0.1 µM, respectively.

Consider `CS(=O)(=O)c1ccc(N2CCN3C(=O)[C@@H](CCCc4cccc5ncsc45)C[C@H]3C2)nc1` [Example 13, (7S,8aS)-7-(3-(benzo[d]thiazol-7-yl)propyl)-2-(5-(methylsulfonyl)pyridin-2-yl)hexahydropyrrolo[1,2-a]pyrazin-6(2H)-one], for which the half-maximal inhibitory concentration (IC50) against M3 was 0.1 to 1 µM; at M2, 0.1 to 1 µM; at human M1 receptor it was less than 0.1 µM.

As for `N#Cc1ccc(N2CCN3C(=O)[C@@H](CCCc4cccc5ncsc45)C[C@H]3C2)nc1` [Example 10, 6-((7S,8aS)-7-(3-(benzo[d]thiazol-7-yl)propyl)-6-oxohexahydropyrrolo[1,2-a]pyrazin-2(1H)-yl)nicotinonitrile], the values for the IC50 on M3, against M2 and on human M1 receptor were 1 to 10 µM, 0.1 to 1 µM and less than 0.1 µM, respectively.

Consider `O=C1[C@@H](CCCc2cccn3nccc23)C[C@H]2CN(c3ccc(F)cn3)CCN12` [Example 87, (7S,8aS)-2-(5-fluoropyridin-2-yl)-7-(3-(pyrazolo[1,5-a]pyridin-4-yl)propyl)hexahydropyrrolo[1,2-a]pyrazin-6(2H)-one], for which the IC50 lay within 1 to 10 µM against M3, 1 to 10 µM at M2 and 0.1 to 1 µM at human M1 receptor.

`N#Cc1ccc(N2CCN3C(=O)[C@@H](CCCc4cccn5nccc45)C[C@H]3C2)nc1` [Example 58, 6-((7S,8aS)-6-oxo-7-(3-(pyrazolo[1,5-a]pyridin-4-yl)propyl)hexahydropyrrolo[1,2-a]pyrazin-2(1H)-yl)nicotinonitrile]: the 50% inhibitory concentration (IC50) against M3 was 0.1 to 1 µM; at M2, 0.1 to 1 µM; at human M1 receptor, less than 0.1 µM.

Turning to `O=C1[C@@H](CCCc2cccn3ncnc23)C[C@H]2CN(c3ccc(F)cn3)CCN12` [Example 62, (7S,8aS)-2-(5-fluoropyridin-2-yl)-7-(3-{[1,2,4]triazolo[1,5-a]pyridin-8-yl}propyl)-octahydropyrrolo[1,2-a]pyrazin-6-one], the values for the IC50 against M3, on M2 and at human M1 receptor were 1 to 10 µM, 1 to 10 µM and less than 0.1 µM, respectively.

As for `O=C1C(CCCc2cccc3ncsc23)CC2CN(c3ccncc3F)CCN12` (racemic) [Example 6, 7-(3-(benzo[d]thiazol-7-yl)propyl)-2-(3-fluoropyridin-4-yl)hexahydropyrrolo[1,2-a]pyrazin-6(2H)-one], the IC50 against M3 was greater than 10 µM; at M2, 1 to 10 µM; at human M1 receptor, 0.1 to 1 µM.
